Drawing on BindingDB's records for doi:10.1074/jbc.M113.474114 (Glaxosmithkline, 2013), this text covers IC50 for 14 compounds.

The structures appear in SMILES notation.

This test deals with T1, Tyrosine-protein kinase ITK/TSK [357-620,Y512E] (Human, UniProt Q08881, Y512E).
T1 construct: 357-620
T1 sequence (Q08881 357-620 Y512E): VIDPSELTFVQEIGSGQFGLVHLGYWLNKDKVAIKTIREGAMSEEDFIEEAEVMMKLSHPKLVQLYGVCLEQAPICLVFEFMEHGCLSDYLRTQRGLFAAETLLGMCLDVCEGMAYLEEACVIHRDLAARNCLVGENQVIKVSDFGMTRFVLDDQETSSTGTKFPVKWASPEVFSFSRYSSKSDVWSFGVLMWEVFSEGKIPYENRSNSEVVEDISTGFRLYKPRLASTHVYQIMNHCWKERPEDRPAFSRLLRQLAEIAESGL
Kind of test: LanthaScreen Kinase Binding Assay. An excerpt:
This assay is based on the binding and displacement of Alexa-fluor 647-labeled ATP-competitive kinase inhibitor tracer 236. Binding of the tracer is detected using a europium-labeled anti-tag antibody that binds to the purified recombinant tagged Itk protein. Binding of the tracer 236 is reversible and rapid, and simultaneous binding of the tracer and antibody results in fluorescence resonance energy transfer (FRET). Displacement of the tracer upon inhibitor binding results in a decrease of FRET. The assay can be read continuously, enabling rates of binding (and displacement) to be monitored.
On the technique in general: TR-FRET usually uses a lanthanide donor and a delayed reading to cut background.
On to `C=CC(=O)N1CC[C@H](Nc2cc(CN[C@@H](C)C(C)(C)C)cc(Nc3nc4cccnc4s3)n2)C1`, for which the IC50 (in general, the concentration that inhibits the measured activity by half) was 5 nM.

Turning to `C=CC(=O)N[C@H]1CCCC[C@H]1Nc1nc(CN2CCOCC2)cc(Nc2nc3cccnc3s2)n1` (relative stereo) [N-(cis-2-{[4-(4-Morpholinylmethyl)-6-([1,3]thiazolo[5,4-b]pyridin-2-ylamino)-2-pyrimidinyl]amino}cyclohexyl)-2-propenamide (4)], the IC50 was 320 nM.

As for `C=CC(=O)N[C@H]1CCC[C@@H](Nc2nc(CN3CCOCC3)cc(Nc3nc4cccnc4s3)n2)C1` (relative stereo) [N-(cis-3-{[4-(4-Morpholinylmethyl)-6-([1,3]thiazolo[5,4-b]pyridin-2-ylamino)-2-pyrimidinyl]amino}cyclohexyl)-2-propenamide (6)], the IC50 turned out to be 250 nM.

On to `C=CC(=O)N1CC[C@H](Nc2cc(CN[C@H](C)C(C)(C)C)cc(Nc3nc4cccnc4s3)n2)C1` [1-((S)-3-((4-((((R)-3,3-Dimethylbutan-2-yl)amino)methyl)-6-(thiazolo[5,4-b]pyridin-2-ylamino)pyridin-2-yl)amino)pyrrolidin-1-yl)prop-2-en-1-one (13)], for which the IC50 came to 7.9 nM.

`C=CC(=O)N1CC[C@H](Nc2cc(CN(C)C)cc(Nc3nc4cccnc4s3)n2)C1` [(S)-1-(3-((4-((Dimethylamino)methyl)-6-(thiazolo[5,4-b]pyridin-2-ylamino)pyridin-2-yl)amino)pyrrolidin-1-yl)prop-2-en-1-one (11)] displayed an IC50 of 32 nM.

The compound `C=CC(=O)N1CC[C@H](Nc2cc(CN3CCCCC3)cc(Nc3nc4cccnc4s3)n2)C1` [(S)-1-(3-((4-(Piperidin-1-ylmethyl)-6-(thiazolo[5,4-b]pyridin-2-ylamino)pyridin-2-yl)amino)pyrrolidin-1-yl)prop-2-en-1-one (10)] returned an IC50 of 6.3 nM.

For the compound `O[C@H]1CC[C@H](Nc2nc(CN3CCOCC3)cc(Nc3nc4cccnc4s3)n2)CC1` [(trans)-4-((4-(Morpholinomethyl)-6-(thiazolo[5,4-b]pyridin-2-ylamino)pyrimidin-2-yl)amino)cyclohexanol (1)], the half-maximal inhibitory concentration (IC50) was 100 nM.

`C=CC(=O)N1CCC(Nc2nc(CN3CCOCC3)cc(Nc3nc4cccnc4s3)n2)CC1` [N2-(1-Acryloyl-4-piperidinyl)-6-(4-morpholinylmethyl)-N4-[1,3]thiazolo[5,4-b]pyridin-2-yl-2,4-pyrimidinediamine (3)] gave an IC50 of 320 nM. This IC50 lies about 3.2-fold higher than the previous one.

Regarding `C=CC(=O)N1CC[C@@H](Nc2nc(CN3CCOCC3)cc(Nc3nc4cccnc4s3)n2)C1` [N2-[(3R)-1-Acryloyl-3-pyrrolidinyl]-6-(4-morpholinylmethyl)-N4-[1,3]thiazolo[5,4-b]pyridin-2-yl-2,4-pyrimidinediamine (14)], the IC50 came out at 20000 nM.

For `C=CC(=O)N1CC[C@H](Nc2nc(CN3CCOCC3)cc(Nc3nc4cccnc4s3)n2)C1` [N2-[(3S)-1-Acryloyl-3-pyrrolidinyl]-6-(4-morpholinylmethyl)-N4-[1,3]thiazolo[5,4-b]pyridin-2-yl-2,4-pyrimidinediamine (7)], the IC50 came to 500 nM. Compared with the last compound, the IC50 is about 40-fold lower.

As for `C=CC(=O)NCCNc1nc(CN2CCOCC2)cc(Nc2nc3cccnc3s2)n1` [N-(2-{[4-(4-Morpholinylmethyl)-6-([1,3]thiazolo[5,4-b]pyridin-2-ylamino)-2-pyrimidinyl]amino}ethyl)-2-propenamide (2)], the IC50 was found to be 1300 nM.

Turning to `C=CC(=O)N[C@H]1CC[C@H](Nc2nc(CN3CCOCC3)cc(Nc3nc4cccnc4s3)n2)CC1` [N-(trans-4-{[4-(4-Morpholinylmethyl)-6-([1,3]thiazolo[5,4-b]pyridin-2-ylamino)-2-pyrimidinyl]amino}cyclohexyl)-2-propenamide (5)], the IC50 was determined as 2000 nM.

Compound `C=CC(=O)N1CC[C@H](Nc2cc(CN3C[C@@H](C)O[C@@H](C)C3)cc(Nc3nc4cccnc4s3)n2)C1` [N-[(3S)-1-Acryloyl-3-pyrrolidinyl]-4-{[cis-2,6-dimethyl-4-morpholinyl]methyl}-N'-[1,3]thiazolo[5,4-b]pyridin-2-yl-2,6-pyridinediamine (9)] showed an IC50 of 5 nM.

In the case of `C/C=C/C(=O)N1CC[C@H](Nc2cc(CN3C[C@@H](C)O[C@@H](C)C3)cc(Nc3nc4cccnc4s3)n2)C1` [N-{(3S)-1-[(2E)-2-Butenoyl]-3-pyrrolidinyl}-4-{[cis-2,6-dimethyl-4-morpholinyl]methyl}-N'-[1,3]thiazolo[5,4-b]pyridin-2-yl-2,6-pyridinediamine (16)], the IC50 is 40 nM.
